In PubChem BioAssay (NCI):
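These data come from cells grown in 96-well plates and exposed to compound for 48 hours at five concentrations. TGI: total growth inhibition.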

Legend:
Test in all cases: NCI tumour cell line growth inhibition, 48 h
786-0 renal = system: 786-0 renal
A498 renal = system: A498 renal
A549 NSCLC = system: A549 NSCLC
ACHN renal = system: ACHN renal
BT-549 breast = system: BT-549 breast
CAKI-1 renal = system: CAKI-1 renal
CCRF-CEM leukemia = system: CCRF-CEM leukemia
COLO 205 colon = system: COLO 205 colon
DU-145 prostate = system: DU-145 prostate
EKVX NSCLC = system: EKVX NSCLC
HCT-116 colon = system: HCT-116 colon
HCT-15 colon = system: HCT-15 colon
HL-60(TB) leukemia = system: HL-60(TB) leukemia
HOP-62 NSCLC = system: HOP-62 NSCLC
HOP-92 NSCLC = system: HOP-92 NSCLC
HS 578T breast = system: HS 578T breast
HT29 colon = system: HT29 colon
IGROV1 ovarian = system: IGROV1 ovarian
K-562 leukemia = system: K-562 leukemia
KM12 colon = system: KM12 colon
LOX IMVI melanoma = system: LOX IMVI melanoma
M14 melanoma = system: M14 melanoma
MALME-3M melanoma = system: MALME-3M melanoma
MCF7 breast = system: MCF7 breast
MDA-MB-231 breast = system: MDA-MB-231 breast
MDA-MB-435 = system: MDA-MB-435
MDA-N = system: MDA-N
MOLT-4 leukemia = system: MOLT-4 leukemia
NCI-H226 lung = system: NCI-H226 lung
NCI-H23 lung = system: NCI-H23 lung
NCI-H460 lung = system: NCI-H460 lung
NCI-H522 lung = system: NCI-H522 lung
NCI/ADR-RES ovarian = system: NCI/ADR-RES ovarian
OVCAR-3 ovarian = system: OVCAR-3 ovarian
OVCAR-4 ovarian = system: OVCAR-4 ovarian
OVCAR-5 ovarian = system: OVCAR-5 ovarian
OVCAR-8 ovarian = system: OVCAR-8 ovarian
PC-3 prostate = system: PC-3 prostate
RPMI-8226 leukemia = system: RPMI-8226 leukemia
RXF 393 renal = system: RXF 393 renal
SF-295 CNS = system: SF-295 CNS
SF-539 CNS = system: SF-539 CNS
SK-MEL-2 melanoma = system: SK-MEL-2 melanoma
SK-MEL-28 melanoma = system: SK-MEL-28 melanoma
SK-MEL-5 melanoma = system: SK-MEL-5 melanoma
SK-OV-3 ovarian = system: SK-OV-3 ovarian
SN12C renal = system: SN12C renal
SNB-19 CNS = system: SNB-19 CNS
SNB-75 CNS = system: SNB-75 CNS
SR leukemia = system: SR leukemia
SW-620 colon = system: SW-620 colon
T-47D breast = system: T-47D breast
TK-10 renal = system: TK-10 renal
U251 CNS = system: U251 CNS
UACC-257 melanoma = system: UACC-257 melanoma
UACC-62 melanoma = system: UACC-62 melanoma
UO-31 renal = system: UO-31 renal
HCC-2998 colon = system: HCC-2998 colon
SF-268 CNS = system: SF-268 CNS

SMILES: CCOC(=O)c1sc(N)nc1N1CCCC1
- TGI (786-0 renal): > 100 µM
- TGI (A498 renal): > 100 µM
- TGI (A549 NSCLC): > 100 µM
- TGI (ACHN renal): > 100 µM
- TGI (BT-549 breast): > 100 µM
- TGI (CAKI-1 renal): > 100 µM
- TGI (CCRF-CEM leukemia): > 100 µM
- TGI (COLO 205 colon): > 100 µM
- TGI (DU-145 prostate): > 100 µM
- TGI (EKVX NSCLC): > 100 µM
- TGI (HCT-116 colon): > 100 µM
- TGI (HCT-15 colon): > 100 µM
- TGI (HL-60(TB) leukemia): > 100 µM
- TGI (HOP-62 NSCLC): > 100 µM
- TGI (HOP-92 NSCLC): > 100 µM
- TGI (HS 578T breast): > 100 µM
- TGI (HT29 colon): > 100 µM
- TGI (IGROV1 ovarian): > 100 µM
- TGI (K-562 leukemia): > 100 µM
- TGI (KM12 colon): > 100 µM
- TGI (LOX IMVI melanoma): > 100 µM
- TGI (M14 melanoma): > 100 µM
- TGI (MALME-3M melanoma): > 100 µM
- TGI (MCF7 breast): > 100 µM
- TGI (MDA-MB-231 breast): > 100 µM
- TGI (MDA-MB-435): > 100 µM
- TGI (MDA-N): > 100 µM
- TGI (MOLT-4 leukemia): > 100 µM
- TGI (NCI-H226 lung): > 100 µM
- TGI (NCI-H23 lung): > 100 µM
- TGI (NCI-H460 lung): > 100 µM
- TGI (NCI-H522 lung): > 100 µM
- TGI (NCI/ADR-RES ovarian): > 100 µM
- TGI (OVCAR-3 ovarian): > 100 µM
- TGI (OVCAR-4 ovarian): > 100 µM
- TGI (OVCAR-5 ovarian): > 100 µM
- TGI (OVCAR-8 ovarian): > 100 µM
- TGI (PC-3 prostate): > 100 µM
- TGI (RPMI-8226 leukemia): > 100 µM
- TGI (RXF 393 renal): > 100 µM
- TGI (SF-295 CNS): > 100 µM
- TGI (SF-539 CNS): > 100 µM
- TGI (SK-MEL-2 melanoma): > 100 µM
- TGI (SK-MEL-28 melanoma): > 100 µM
- TGI (SK-MEL-5 melanoma): > 100 µM
- TGI (SK-OV-3 ovarian): > 100 µM
- TGI (SN12C renal): > 100 µM
- TGI (SNB-19 CNS): > 100 µM
- TGI (SNB-75 CNS): > 100 µM
- TGI (SR leukemia): > 100 µM
- TGI (SW-620 colon): > 100 µM
- TGI (T-47D breast): > 100 µM
- TGI (TK-10 renal): > 100 µM
- TGI (U251 CNS): > 100 µM
- TGI (UACC-257 melanoma): > 100 µM
- TGI (UACC-62 melanoma): > 100 µM
- TGI (UO-31 renal): > 100 µM

SMILES: CC(=O)OCC1OC(Sc2nc(-c3ccccc3)c(C#N)c(=O)n2C2OC(COC(C)=O)C(OC(C)=O)C(OC(C)=O)C2OC(C)=O)C(OC(C)=O)C(OC(C)=O)C1OC(C)=O (stereo not drawn)
- TGI (786-0 renal): > 100 µM
- TGI (A498 renal): > 100 µM
- TGI (A549 NSCLC): > 100 µM
- TGI (ACHN renal): > 100 µM
- TGI (BT-549 breast): > 100 µM
- TGI (CAKI-1 renal): > 100 µM
- TGI (COLO 205 colon): > 100 µM
- TGI (DU-145 prostate): > 100 µM
- TGI (EKVX NSCLC): > 100 µM
- TGI (HCC-2998 colon): > 100 µM
- TGI (HCT-116 colon): > 100 µM
- TGI (HCT-15 colon): > 100 µM
- TGI (HOP-62 NSCLC): > 100 µM
- TGI (HOP-92 NSCLC): > 100 µM
- TGI (HS 578T breast): > 100 µM
- TGI (HT29 colon): > 100 µM
- TGI (IGROV1 ovarian): > 100 µM
- TGI (K-562 leukemia): > 100 µM
- TGI (KM12 colon): > 100 µM
- TGI (LOX IMVI melanoma): > 100 µM
- TGI (M14 melanoma): > 100 µM
- TGI (MCF7 breast): > 100 µM
- TGI (MDA-MB-231 breast): > 100 µM
- TGI (MDA-MB-435): > 100 µM
- TGI (MDA-N): > 100 µM
- TGI (MOLT-4 leukemia): > 100 µM
- TGI (NCI-H226 lung): > 100 µM
- TGI (NCI-H23 lung): > 100 µM
- TGI (NCI-H460 lung): > 100 µM
- TGI (NCI-H522 lung): > 100 µM
- TGI (NCI/ADR-RES ovarian): > 100 µM
- TGI (OVCAR-3 ovarian): > 100 µM
- TGI (OVCAR-5 ovarian): > 100 µM
- TGI (OVCAR-8 ovarian): > 100 µM
- TGI (PC-3 prostate): > 100 µM
- TGI (RPMI-8226 leukemia): > 100 µM
- TGI (RXF 393 renal): > 100 µM
- TGI (SF-268 CNS): > 100 µM
- TGI (SF-295 CNS): > 100 µM
- TGI (SF-539 CNS): > 100 µM
- TGI (SK-MEL-2 melanoma): > 100 µM
- TGI (SK-MEL-28 melanoma): > 100 µM
- TGI (SK-MEL-5 melanoma): > 100 µM
- TGI (SK-OV-3 ovarian): > 100 µM
- TGI (SN12C renal): > 100 µM
- TGI (SNB-75 CNS): > 100 µM
- TGI (SR leukemia): > 100 µM
- TGI (SW-620 colon): > 100 µM
- TGI (T-47D breast): > 100 µM
- TGI (TK-10 renal): > 100 µM
- TGI (U251 CNS): > 100 µM
- TGI (UACC-257 melanoma): > 100 µM
- TGI (UACC-62 melanoma): > 100 µM
- TGI (UO-31 renal): > 100 µM

SMILES: O=c1[nH]c2ccccc2c(=O)c2cc3ccccc3cc12
- TGI (786-0 renal): 21.9 µM
- TGI (A498 renal): 48.4 µM
- TGI (A549 NSCLC): > 100 µM
- TGI (ACHN renal): > 100 µM
- TGI (BT-549 breast): 45.2 µM
- TGI (CAKI-1 renal): 45.5 µM
- TGI (CCRF-CEM leukemia): > 100 µM
- TGI (COLO 205 colon): > 100 µM
- TGI (DU-145 prostate): > 100 µM
- TGI (EKVX NSCLC): > 100 µM
- TGI (HCC-2998 colon): > 100 µM
- TGI (HCT-116 colon): 20.3 µM
- TGI (HCT-15 colon): > 100 µM
- TGI (HL-60(TB) leukemia): > 100 µM
- TGI (HOP-62 NSCLC): 25.9 µM
- TGI (HOP-92 NSCLC): 19.8 µM
- TGI (HS 578T breast): 70.9 µM
- TGI (HT29 colon): > 100 µM
- TGI (IGROV1 ovarian): > 100 µM
- TGI (K-562 leukemia): > 100 µM
- TGI (KM12 colon): > 100 µM
- TGI (LOX IMVI melanoma): > 100 µM
- TGI (M14 melanoma): > 100 µM
- TGI (MALME-3M melanoma): > 100 µM
- TGI (MCF7 breast): > 100 µM
- TGI (MDA-MB-231 breast): 22 µM
- TGI (MDA-MB-435): > 100 µM
- TGI (MDA-N): > 100 µM
- TGI (MOLT-4 leukemia): > 100 µM
- TGI (NCI-H226 lung): 45.8 µM
- TGI (NCI-H23 lung): 47.8 µM
- TGI (NCI-H460 lung): 53.6 µM
- TGI (NCI-H522 lung): 25.8 µM
- TGI (NCI/ADR-RES ovarian): > 100 µM
- TGI (OVCAR-3 ovarian): > 100 µM
- TGI (OVCAR-4 ovarian): > 100 µM
- TGI (OVCAR-5 ovarian): > 100 µM
- TGI (OVCAR-8 ovarian): 37.7 µM
- TGI (PC-3 prostate): > 100 µM
- TGI (RXF 393 renal): 56.3 µM
- TGI (SF-268 CNS): 28.2 µM
- TGI (SF-295 CNS): 53.9 µM
- TGI (SF-539 CNS): > 100 µM
- TGI (SK-MEL-2 melanoma): > 100 µM
- TGI (SK-MEL-28 melanoma): > 100 µM
- TGI (SK-MEL-5 melanoma): > 100 µM
- TGI (SK-OV-3 ovarian): 30.6 µM
- TGI (SN12C renal): > 100 µM
- TGI (SNB-19 CNS): 37.3 µM
- TGI (SNB-75 CNS): 19.4 µM
- TGI (SW-620 colon): > 100 µM
- TGI (T-47D breast): > 100 µM
- TGI (TK-10 renal): 37 µM
- TGI (U251 CNS): 21.4 µM
- TGI (UACC-257 melanoma): > 100 µM
- TGI (UACC-62 melanoma): > 100 µM
- TGI (UO-31 renal): > 100 µM
